Laboratory results: ChEMBL document CHEMBL1201862, “PubChem BioAssay data set” (2004)
Calls of active or inactive are those of the source.

Assays:
X-box-binding protein 1 = biological target: T1, X-box-binding protein 1 (Homo sapiens, UniProt P17861); assay type: functional, Cricetulus griseus;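 further: confirmatory dose-response counter-screen serving a CHOP assay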
T1 sequence (P17861 whole entry): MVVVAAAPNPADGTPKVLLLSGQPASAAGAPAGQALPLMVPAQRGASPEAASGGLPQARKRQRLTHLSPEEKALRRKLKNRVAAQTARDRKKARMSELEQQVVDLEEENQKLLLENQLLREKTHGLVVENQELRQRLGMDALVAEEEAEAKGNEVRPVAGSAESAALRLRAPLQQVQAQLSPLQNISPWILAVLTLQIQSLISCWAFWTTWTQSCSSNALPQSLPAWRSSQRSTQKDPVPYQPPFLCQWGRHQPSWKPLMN

[1] = viability of HCT116 lacking mutant beta-catenin – cell-based, human colon tumor, dose response (AID 1045); assay type: functional;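 further: HCT116 colon tumor cells with beta catenin knocked out; cells exposed to compound for 60 hours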
[2] = Luminescence Cell-Based Dose Retest to Confirm Inhibitors of Cancer Stem Cells. [Related pubchem assays (depositor defined):AID2717, AID2721]; assay type: functional; conditions: Homo sapiens
INS1 = test: INS-1E survival protection against cytokine death – cell-based, luminescence, retest, dose response (AID 449756); assay type: functional; conditions: Rattus norvegicus;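 further: cell death triggered by IL-1 beta plus TNF-alpha plus IFN-gamma mixture; protective hits raise ATP signal compared with cytokine alone wells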
[3] = viability of PTEN-deleted HCT116 cells – cell-based, HCT116 PTEN knockout, dose response (AID 1047); assay type: functional;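 further: HCT116 colon tumor cells with PTEN knocked out; cells exposed to compound for 60 hours before readout; potency for loss of cell viability measured by luminescence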
[4] = HEK-293T cell viability reduction – luminescence, B-cell screen hits, cytotoxicity control for BCR NF-kB inhibitor project, dose response (AID 489021); assay type: functional, cell-based;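 further: HEK-293T cells carrying an NF-kB luciferase reporter; cells exposed to compound for about 14 hours before viability readout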
[5] = biological target: T2, DNA dC->dU-editing enzyme APOBEC-3G (Homo sapiens, UniProt Q9HC16); test: Dose Response confirmation of small molecule APOBEC3G DNA Deaminase Inhibitors via a fluorescence-based single-stranded DNA deaminase assay. [Related pubchem assays (depositor defined):AID493012, AID493028]; assay type: functional
Cytochrome P450 2C9 = Cytochrome P450 2C9 (Homo sapiens, UniProt P11712)
Cytochrome P450 2C19 = Cytochrome P450 2C19 (Homo sapiens, UniProt P33261); test: Cytochrome panel assay with activity outcomes. Panel member name: p450-cyp2c19 Compounds with AC50 equal or less than 10 uM are considered active; assay type: functional
HEK293 = test: Fluorescence-based counterscreen for potentiators or agonists of NPY-Y2: cell-based high-throughput dose response assay to identify inhibitors of cyclic nucleotide gated ion channel (CNGC) activity. In this assay, the parental HEK293 cell line transfected with a cyclic-nucleotide gated ion channel (CNGC)-based cAMP sensor is used to measure inhibition of isoproterenol-induced CNGC activity by test compound.; assay type: functional; conditions: Homo sapiens;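 further: stimulus is 1 µM isoproterenol at EC100 plus PDE inhibitor Ro 20-1724 at 25 µM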
[6] = system: Streptococcus sp. 'group A'; test: Streptococcus pyogenes SK(-)GAS viability under kanamycin – luminescence, BacTiterGlo, confirmation, counter-screen for streptokinase expression inhibitor project, dose response (AID 1900); assay type: functional, organism-based
[7] = biological target: T3, Neuropeptide Y receptor type 2 (Homo sapiens, UniProt P49146); test: Fluorescence-based cell-based high-throughput dose response assay for agonists of NPY-Y2. [Related pubchem assays: 1703 (Screening assay (CNGC inhibitors).), 1359 (Screening assay (NPY-Y2 potentiators or agonists).), 1304 (Screening assay (NPY-Y1 potentiators or agonists).), 1710 (Screening assay (NPY-Y2 agonists).), 1791 (Summary AID.)]; assay type: functional
T3 sequence (P49146 whole entry): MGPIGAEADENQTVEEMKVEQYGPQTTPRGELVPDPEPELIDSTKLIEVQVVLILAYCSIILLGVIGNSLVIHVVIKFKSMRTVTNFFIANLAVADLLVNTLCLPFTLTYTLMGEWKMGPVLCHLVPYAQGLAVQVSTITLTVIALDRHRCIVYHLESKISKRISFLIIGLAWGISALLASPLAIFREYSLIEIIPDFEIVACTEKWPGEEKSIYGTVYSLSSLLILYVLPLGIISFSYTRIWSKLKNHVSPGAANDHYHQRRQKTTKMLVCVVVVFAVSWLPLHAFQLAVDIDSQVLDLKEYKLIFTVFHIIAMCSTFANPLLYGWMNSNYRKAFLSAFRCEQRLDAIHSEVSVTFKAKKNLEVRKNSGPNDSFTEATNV

Streptokinase A = biological target: T4, Streptokinase A (Streptococcus pyogenes serotype M1, UniProt P10520); test: viability-normalized secreted streptokinase activity reduction – plasminogen activation absorbance, OD405, dose response (AID 1914); assay type: functional, Streptococcus pyogenes M1 GAS;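 further: secreted streptokinase activity via plasminogen activation per viability signal from cell pellet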
T4 sequence (P10520 whole entry): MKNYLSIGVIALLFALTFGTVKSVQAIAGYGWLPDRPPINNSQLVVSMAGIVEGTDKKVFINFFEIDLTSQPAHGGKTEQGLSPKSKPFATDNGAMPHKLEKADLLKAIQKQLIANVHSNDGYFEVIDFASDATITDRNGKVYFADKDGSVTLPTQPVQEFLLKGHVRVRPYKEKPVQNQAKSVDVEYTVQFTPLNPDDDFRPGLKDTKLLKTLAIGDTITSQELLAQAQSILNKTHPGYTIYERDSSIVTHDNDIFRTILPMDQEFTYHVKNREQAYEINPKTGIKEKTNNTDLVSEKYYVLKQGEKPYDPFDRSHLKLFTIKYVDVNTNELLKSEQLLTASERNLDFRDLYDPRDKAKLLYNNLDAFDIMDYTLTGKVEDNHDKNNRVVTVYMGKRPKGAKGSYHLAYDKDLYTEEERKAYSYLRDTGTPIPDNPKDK

[8] = biological target: T5, Neuropeptide Y receptor type 1 (Homo sapiens, UniProt P25929); test: Fluorescence-based counterscreen for agonists of NPY-Y2: cell-based high-throughput dose response assay for agonists of NPY-Y1.; assay type: functional
T5 sequence (P25929 whole entry): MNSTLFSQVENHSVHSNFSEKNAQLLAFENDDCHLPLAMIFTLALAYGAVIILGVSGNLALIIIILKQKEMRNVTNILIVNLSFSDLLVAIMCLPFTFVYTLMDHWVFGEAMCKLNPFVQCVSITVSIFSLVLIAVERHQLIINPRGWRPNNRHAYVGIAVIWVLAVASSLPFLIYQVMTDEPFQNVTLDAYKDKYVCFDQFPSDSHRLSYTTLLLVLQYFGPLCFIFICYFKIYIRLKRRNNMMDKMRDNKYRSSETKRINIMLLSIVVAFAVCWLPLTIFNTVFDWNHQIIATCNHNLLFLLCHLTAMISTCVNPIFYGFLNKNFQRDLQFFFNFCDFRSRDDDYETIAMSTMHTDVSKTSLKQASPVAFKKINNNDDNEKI

Streptococcus = test: GAS UMAA2166 growth inhibition – luminescence, BacTiterGlo, counter-screen for streptokinase expression inhibitor project, dose response (AID 1915); assay type: functional, organism-based;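 further: potency for reduction of bacterial viability or growth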
Large T antigen = Large T antigen (Simian virus 40, UniProt P03070); assay type: functional, Betapolyomavirus macacae;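 further: Confirmatory-stage PubChem screen for compounds that inhibit SV40 T antigen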
Hexokinase HKDC1 = biological target: T6, Hexokinase HKDC1 (Homo sapiens, UniProt Q2TB90); test: inhibition of HKDC1 glucose phosphorylation – biochemical, W721R variant, dose response (AID 504729); assay type: functional
T6 sequence (Q2TB90 whole entry): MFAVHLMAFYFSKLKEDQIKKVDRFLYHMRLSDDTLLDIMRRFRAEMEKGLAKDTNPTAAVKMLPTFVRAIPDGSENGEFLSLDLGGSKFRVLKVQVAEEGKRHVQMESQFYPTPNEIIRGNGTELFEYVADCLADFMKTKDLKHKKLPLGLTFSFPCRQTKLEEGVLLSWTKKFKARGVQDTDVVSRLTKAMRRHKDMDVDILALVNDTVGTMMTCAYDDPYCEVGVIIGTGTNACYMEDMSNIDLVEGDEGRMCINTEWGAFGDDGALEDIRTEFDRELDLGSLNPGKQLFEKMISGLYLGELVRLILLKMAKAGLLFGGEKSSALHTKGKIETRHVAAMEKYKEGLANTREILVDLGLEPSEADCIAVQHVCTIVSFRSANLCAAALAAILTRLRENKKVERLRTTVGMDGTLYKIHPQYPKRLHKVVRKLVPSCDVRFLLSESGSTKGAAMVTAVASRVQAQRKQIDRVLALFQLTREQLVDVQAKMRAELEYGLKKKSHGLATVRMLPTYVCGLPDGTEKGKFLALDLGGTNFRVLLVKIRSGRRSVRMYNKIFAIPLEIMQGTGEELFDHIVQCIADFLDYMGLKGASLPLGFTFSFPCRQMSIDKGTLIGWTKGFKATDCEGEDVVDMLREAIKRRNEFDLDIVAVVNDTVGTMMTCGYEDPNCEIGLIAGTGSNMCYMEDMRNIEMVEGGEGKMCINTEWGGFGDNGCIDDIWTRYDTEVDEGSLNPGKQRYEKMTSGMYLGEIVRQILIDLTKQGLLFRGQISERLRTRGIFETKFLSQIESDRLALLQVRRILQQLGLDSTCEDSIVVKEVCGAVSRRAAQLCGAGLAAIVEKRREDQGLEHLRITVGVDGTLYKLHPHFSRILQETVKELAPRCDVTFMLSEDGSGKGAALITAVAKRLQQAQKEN

[9] = biological target: T7, C-C chemokine receptor type 6 (Homo sapiens, UniProt P51684); test: antagonism of CCR6 beta-arrestin recruitment – cell-based, luminescent beta-arrestin readout, dose response (AID 504728); assay type: functional
T7 sequence (P51684 whole entry): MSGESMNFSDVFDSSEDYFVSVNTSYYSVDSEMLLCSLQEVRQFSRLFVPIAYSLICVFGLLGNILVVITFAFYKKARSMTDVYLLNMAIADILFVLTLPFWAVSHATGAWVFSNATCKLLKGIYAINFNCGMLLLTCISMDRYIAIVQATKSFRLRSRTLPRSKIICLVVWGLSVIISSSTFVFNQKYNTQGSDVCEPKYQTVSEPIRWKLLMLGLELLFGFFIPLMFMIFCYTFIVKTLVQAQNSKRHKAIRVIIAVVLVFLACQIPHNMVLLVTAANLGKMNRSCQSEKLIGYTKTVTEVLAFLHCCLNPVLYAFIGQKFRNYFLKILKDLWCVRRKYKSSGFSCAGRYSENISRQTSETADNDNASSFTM

[10] = biological target: Heat shock protein HSP 90-alpha (Homo sapiens, UniProt P07900); assay type: functional, organism-based
[11] = biological target: Disintegrin and metalloproteinase domain-containing protein 17 (Homo sapiens, UniProt P78536); test: inhibition of ADAM17 substrate cleavage – biochemical, quenched FRET substrate, counter-screen for ADAM10 exosite inhibitor project, dose response (AID 743253)
cells [12] = assay type: functional, cell-based
Beta-galactosidase = Beta-galactosidase (Escherichia coli, UniProt Q8VNN2); test: detection-enzyme interference by beta-gal modulators – biochemical, E. coli enzyme, set 3, artefact control for CCR6 antagonist project, dose response (AID 504712); assay type: functional
cells [13] = assay type: functional, cell-based; remark: listed apart in the source
Nonstructural protein 1 = Nonstructural protein 1 (Influenza A virus, UniProt Q194T2); assay type: functional, Influenza A virus (A/California/07/2009(H1N1))
[14] = biological target: DNA dC->dU-editing enzyme APOBEC-3A (Homo sapiens, UniProt P31941); test: Dose Response confirmation of small molecule APOBEC3A DNA Deaminase Inhibitors via a fluorescence-based single-stranded DNA deaminase assay. [Related pubchem assays (depositor defined):AID493011, AID493024]; assay type: functional
[15] = biological target: T2, DNA dC->dU-editing enzyme APOBEC-3G; assay type: functional
[16] = biological target: Eukaryotic translation initiation factor 4H (Homo sapiens, UniProt Q15056); test: eIF4H binding inhibition – biochemical, uHTS, fluorescence polarization, translation initiation inhibitor project, primary screen (AID 2012)
[17] = biological target: Polyadenylate-binding protein 1 (Homo sapiens, UniProt P11940); test: blockers of PABP interaction with poly(A) – biochemical, fluorescence polarization, […] (AID 2014)
Polyadenylate-binding protein 1, sequence (P11940 whole entry): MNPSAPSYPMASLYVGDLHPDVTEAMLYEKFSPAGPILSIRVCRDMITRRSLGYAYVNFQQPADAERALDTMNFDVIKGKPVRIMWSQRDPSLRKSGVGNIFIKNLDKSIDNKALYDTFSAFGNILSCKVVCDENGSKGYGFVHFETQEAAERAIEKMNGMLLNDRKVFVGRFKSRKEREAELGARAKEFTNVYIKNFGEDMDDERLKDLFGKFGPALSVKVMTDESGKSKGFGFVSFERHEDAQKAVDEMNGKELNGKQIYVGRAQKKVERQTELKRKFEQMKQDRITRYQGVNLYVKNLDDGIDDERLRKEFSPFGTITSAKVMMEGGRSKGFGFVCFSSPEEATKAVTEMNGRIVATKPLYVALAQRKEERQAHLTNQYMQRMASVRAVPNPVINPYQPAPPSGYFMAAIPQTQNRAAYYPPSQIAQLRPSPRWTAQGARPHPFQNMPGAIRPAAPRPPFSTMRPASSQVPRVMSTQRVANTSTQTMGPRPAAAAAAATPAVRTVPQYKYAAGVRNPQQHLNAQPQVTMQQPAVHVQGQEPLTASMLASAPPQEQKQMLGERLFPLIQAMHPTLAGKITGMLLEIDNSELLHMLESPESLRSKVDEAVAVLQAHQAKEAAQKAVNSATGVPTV

T2 sequence (Q9HC16 whole entry): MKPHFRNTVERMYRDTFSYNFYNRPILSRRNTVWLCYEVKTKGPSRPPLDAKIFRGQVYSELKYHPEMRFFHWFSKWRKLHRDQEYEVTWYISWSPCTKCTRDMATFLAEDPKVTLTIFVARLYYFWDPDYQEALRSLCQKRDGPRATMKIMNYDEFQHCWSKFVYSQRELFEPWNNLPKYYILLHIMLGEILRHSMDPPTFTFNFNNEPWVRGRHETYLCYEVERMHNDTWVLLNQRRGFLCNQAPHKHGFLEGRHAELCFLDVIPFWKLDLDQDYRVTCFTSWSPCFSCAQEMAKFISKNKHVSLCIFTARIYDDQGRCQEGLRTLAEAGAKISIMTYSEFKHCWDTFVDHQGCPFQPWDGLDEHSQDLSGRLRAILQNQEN
Beta-galactosidase, sequence (Q8VNN2 whole entry): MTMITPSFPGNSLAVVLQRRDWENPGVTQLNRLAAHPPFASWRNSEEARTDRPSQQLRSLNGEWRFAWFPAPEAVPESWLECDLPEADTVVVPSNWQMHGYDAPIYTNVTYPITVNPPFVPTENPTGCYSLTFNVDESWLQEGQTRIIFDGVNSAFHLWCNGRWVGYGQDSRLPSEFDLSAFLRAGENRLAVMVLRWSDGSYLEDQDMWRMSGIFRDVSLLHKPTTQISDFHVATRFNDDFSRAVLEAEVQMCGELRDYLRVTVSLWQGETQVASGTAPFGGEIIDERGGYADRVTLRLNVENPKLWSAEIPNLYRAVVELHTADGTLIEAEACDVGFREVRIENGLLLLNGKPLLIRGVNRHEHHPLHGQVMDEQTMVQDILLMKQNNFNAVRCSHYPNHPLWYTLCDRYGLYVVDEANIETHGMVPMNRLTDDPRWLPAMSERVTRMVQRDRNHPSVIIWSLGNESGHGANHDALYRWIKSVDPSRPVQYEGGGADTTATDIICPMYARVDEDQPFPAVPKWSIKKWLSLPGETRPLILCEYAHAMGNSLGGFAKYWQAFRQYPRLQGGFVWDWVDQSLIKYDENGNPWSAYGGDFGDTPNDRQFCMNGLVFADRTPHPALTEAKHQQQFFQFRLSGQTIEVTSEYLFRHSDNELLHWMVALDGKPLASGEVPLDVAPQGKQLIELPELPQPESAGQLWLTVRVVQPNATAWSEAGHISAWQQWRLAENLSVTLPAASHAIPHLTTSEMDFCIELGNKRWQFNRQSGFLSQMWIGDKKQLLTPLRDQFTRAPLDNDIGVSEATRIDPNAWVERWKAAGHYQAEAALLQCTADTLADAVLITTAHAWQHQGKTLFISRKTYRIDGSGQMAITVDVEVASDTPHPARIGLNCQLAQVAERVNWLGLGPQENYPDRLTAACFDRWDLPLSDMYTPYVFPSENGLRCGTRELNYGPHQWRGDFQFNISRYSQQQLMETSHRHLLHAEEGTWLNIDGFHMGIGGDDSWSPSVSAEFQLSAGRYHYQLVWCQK
DNA dC->dU-editing enzyme APOBEC-3A, sequence (P31941 whole entry): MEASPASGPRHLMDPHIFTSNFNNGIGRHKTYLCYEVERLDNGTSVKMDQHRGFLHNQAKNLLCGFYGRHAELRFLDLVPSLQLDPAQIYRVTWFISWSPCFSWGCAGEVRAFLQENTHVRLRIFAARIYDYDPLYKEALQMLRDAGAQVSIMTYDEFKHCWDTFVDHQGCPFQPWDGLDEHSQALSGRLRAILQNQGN
Cytochrome P450 2C19, sequence (P33261 whole entry): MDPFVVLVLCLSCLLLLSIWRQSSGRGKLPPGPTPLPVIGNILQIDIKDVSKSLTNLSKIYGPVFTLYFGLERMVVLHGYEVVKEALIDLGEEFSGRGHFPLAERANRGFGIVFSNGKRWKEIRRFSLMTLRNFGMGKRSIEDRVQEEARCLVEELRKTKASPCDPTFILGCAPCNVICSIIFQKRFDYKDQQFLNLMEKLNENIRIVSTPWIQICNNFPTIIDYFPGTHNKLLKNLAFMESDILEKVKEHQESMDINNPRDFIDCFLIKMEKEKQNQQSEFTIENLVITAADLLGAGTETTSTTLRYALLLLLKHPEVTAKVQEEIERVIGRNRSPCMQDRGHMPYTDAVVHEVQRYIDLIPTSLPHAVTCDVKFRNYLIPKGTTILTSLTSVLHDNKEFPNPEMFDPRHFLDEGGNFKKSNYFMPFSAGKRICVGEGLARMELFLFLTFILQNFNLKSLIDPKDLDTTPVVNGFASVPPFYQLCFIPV
Large T antigen, sequence (P03070 whole entry): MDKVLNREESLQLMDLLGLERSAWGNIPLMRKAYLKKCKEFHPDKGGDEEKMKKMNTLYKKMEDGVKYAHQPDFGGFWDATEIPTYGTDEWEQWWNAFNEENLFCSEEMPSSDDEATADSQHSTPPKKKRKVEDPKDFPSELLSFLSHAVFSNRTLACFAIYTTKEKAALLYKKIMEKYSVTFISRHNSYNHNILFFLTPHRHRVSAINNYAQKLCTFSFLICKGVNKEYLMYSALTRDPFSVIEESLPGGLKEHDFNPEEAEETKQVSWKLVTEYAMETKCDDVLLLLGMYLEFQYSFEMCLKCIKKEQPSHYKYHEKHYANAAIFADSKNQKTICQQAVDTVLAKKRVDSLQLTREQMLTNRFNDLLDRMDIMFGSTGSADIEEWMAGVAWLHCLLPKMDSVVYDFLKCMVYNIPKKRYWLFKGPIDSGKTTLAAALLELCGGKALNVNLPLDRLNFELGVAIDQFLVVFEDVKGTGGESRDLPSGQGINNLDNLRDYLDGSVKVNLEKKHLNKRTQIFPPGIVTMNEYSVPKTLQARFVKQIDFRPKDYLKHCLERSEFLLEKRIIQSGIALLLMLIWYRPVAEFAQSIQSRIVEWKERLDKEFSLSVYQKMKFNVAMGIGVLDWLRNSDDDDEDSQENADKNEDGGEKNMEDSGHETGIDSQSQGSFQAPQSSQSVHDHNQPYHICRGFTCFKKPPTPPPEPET
Disintegrin and metalloproteinase domain-containing protein 17, sequence (P78536 whole entry, the tested form may be a part): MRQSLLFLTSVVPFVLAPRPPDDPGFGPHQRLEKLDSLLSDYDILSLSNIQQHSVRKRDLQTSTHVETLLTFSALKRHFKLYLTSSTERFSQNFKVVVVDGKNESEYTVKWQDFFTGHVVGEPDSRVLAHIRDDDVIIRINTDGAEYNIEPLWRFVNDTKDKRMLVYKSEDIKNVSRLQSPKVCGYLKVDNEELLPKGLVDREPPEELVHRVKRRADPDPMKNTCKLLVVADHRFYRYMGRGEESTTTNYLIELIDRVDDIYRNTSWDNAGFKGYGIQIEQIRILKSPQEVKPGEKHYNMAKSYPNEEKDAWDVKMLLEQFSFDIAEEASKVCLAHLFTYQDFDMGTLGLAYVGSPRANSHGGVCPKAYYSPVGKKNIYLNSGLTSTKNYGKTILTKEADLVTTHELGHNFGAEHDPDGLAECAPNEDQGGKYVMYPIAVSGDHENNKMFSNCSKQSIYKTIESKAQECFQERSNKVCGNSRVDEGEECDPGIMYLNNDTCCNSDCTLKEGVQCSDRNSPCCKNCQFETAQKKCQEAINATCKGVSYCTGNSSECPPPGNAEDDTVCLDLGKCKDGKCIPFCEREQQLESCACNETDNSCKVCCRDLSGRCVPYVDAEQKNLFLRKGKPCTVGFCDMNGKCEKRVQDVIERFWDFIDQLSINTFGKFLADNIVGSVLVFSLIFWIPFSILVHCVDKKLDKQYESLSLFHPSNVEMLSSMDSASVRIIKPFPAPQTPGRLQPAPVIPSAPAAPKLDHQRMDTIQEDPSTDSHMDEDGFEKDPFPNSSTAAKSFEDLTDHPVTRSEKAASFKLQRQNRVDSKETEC
Cytochrome P450 2C9, sequence (P11712 whole entry): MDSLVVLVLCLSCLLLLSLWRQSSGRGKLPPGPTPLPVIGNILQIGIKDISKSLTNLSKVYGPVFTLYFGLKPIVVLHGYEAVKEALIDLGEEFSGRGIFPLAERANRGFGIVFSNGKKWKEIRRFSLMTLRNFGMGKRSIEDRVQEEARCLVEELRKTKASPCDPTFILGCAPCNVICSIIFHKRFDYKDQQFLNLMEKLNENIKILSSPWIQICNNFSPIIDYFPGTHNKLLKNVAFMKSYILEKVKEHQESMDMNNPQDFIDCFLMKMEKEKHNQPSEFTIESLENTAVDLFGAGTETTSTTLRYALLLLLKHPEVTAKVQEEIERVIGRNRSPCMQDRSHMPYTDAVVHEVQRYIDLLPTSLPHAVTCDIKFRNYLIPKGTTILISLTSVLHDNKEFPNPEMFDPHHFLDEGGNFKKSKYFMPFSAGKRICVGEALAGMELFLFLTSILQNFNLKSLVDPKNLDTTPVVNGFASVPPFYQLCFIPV

Compound: Cc1ccc(S(=O)(=O)Nc2ccc(NC(=O)Nc3cccc(C(F)(F)F)c3)cc2)cc1
- Absolute IC50 (XBP1) (X-box-binding protein 1): 10 µM
- EC50 [1]: 12.9 µM (active)
- AC50 [2]: 1.36 µM (active)
- AC50 (INS1): 8.16 µM (active)
- EC50 [3]: 9.49 µM (active)

Compound: COc1ccc(C(=O)Nc2ccc(OC)c([N+](=O)[O-])c2)cc1Br
- IC50 [4]: > 80 µM (inactive)

Compound: CCOC(=O)c1sc(NC(=O)C(C)C)c(C#N)c1C
- IC50 [5]: 39.3 µM (active)

Compound: Cc1ccc(-c2nn3c(C)nnc3c3ccccc23)cc1S(=O)(=O)NCCN1CCOCC1
- AC50 (Cytochrome P450 2C9): 20 µM (inconclusive)
- IC50 [4]: > 80 µM (inactive)
- AC50 (Cytochrome P450 2C19): inconclusive

Compound: COCCCN1C(=O)/C(=C\c2nc(C#N)c(Nc3ccc(C)cc3)o2)SC1=S
- EC50 (HEK293): > 35.4 µM (not active)
- EC50 [6]: 108 µM (active)
- EC50 [7]: > 35.4 µM (not active)
- EC50 (Streptokinase A): > 150 µM (not active)
- EC50 [8]: > 35.4 µM (not active)
- EC50 (Streptococcus): > 150 µM (not active)

Compound: CC[C@H](C)/C=C(C)/C=C/C1=CC2=C(Cl)C(=O)[C@@](C)(OC(C)=O)C(=O)C2=CO1
- IC50 (Large T antigen): 30.4 µM (active)
- IC50 (Hexokinase HKDC1): 16.8 µM (active)

Compound: COC(=O)/C(=C(/F)Sc1cc(C)c(O)c(C)c1)C(F)(F)F
- Absolute IC50 (XBP1) (X-box-binding protein 1): 10 µM

Compound: O=[N+]([O-])c1ccc(O)c(/C=N/Nc2ccccn2)c1
- IC50 [9]: > 66.6 µM (inactive)
- AC50 [10]: 3.97 µM (active)
- IC50 [11]: 9.75 µM (active)
- EC50 (cells [12]): > 350 µM (not active)
- AC50 (INS1): 0.342 µM (active)
- IC50 (Beta-galactosidase): > 66.6 µM (inactive)
- EC50 (cells [13]): > 350 µM (not active)
- IC50 (Nonstructural protein 1): 7.05 µM (active)

Compound: CCn1c(=O)c2cc(C(=O)NCc3cccs3)sc2c2ccccc21
- IC50 [4]: > 80 µM (inactive)

Compound: CN(CC(=O)Nc1ccc(OC(F)F)cc1)S(=O)(=O)/C=C/c1ccccc1
- IC50 [9]: > 66.6 µM (inactive)
- IC50 (Beta-galactosidase): > 66.6 µM (inactive)

Compound: Nc1c(N(C(=O)Nc2ccc(Cl)c(Cl)c2)C2CCCC2)c(=O)[nH]c(=O)n1Cc1ccccc1
- Absolute IC50 (XBP1) (X-box-binding protein 1): 10 µM
- EC50 [1]: 15.3 µM (active)
- EC50 [3]: 15.5 µM (active)

Compound: C[n+]1ccc(-c2ccncc2)cc1
- IC50 [14]: 2.02 µM (active)
- IC50 [15]: 2.53 µM (active)
- IC50 [16]: 82.2 µM (active)
- IC50 [17]: 7.33 µM (active)
